Patent publication US20230123534A1, “LIPIDS FOR LIPID NANOPARTICLE DELIVERY OF ACTIVE AGENTS” (Acuitas Therapeutics, Inc., priority 2019, published 2023)
Where two headings read alike, the source gives them in different places.

How the values were obtained:
[1] = tested on: luciferase expression in the liver; assay: In vivo luciferase mRNA expression rodent model (liver luciferase after tail vein injection of FLuc mRNA lipid nanoparticles); set-up: species or system mice; details: liver 4 hours after administration, FLuc mRNA (L-6107) LNP 50% cationic lipid/10% DSPC/38.5% cholesterol/1.5% PEG-DMG; for Liver Luc @ 0.3 mg/kg dose: 0.3 mg mRNA/kg; for Liver Luc @ 1.0 mg/kg dose: 1.0 mg mRNA/kg
Method: Lipid nanoparticles were prepared and tested according to the general procedures described in PCT Pub. Nos. WO 2015/199952 and WO 2017/004143, the full disclosures of which are incorporated herein by reference. Briefly, cationic lipid, DSPC, cholesterol and PEG-lipid were solubilized in ethanol at a molar ratio of about 50:10:38.5:1.5 or about 47.5:10:40.8:1.7. Lipid nanoparticles (LNP) were prepared at a total lipid to mRNA weight ratio of approximately 10:1 to 30:1. The mRNA is diluted to 0.2 mg/mL in 10 to 50 mM citrate or acetate buffer, pH 4. Syringe pumps were used to mix the ethanolic lipid solution with the mRNA aqueous solution at a ratio of about 1:5 to 1:3 (vol/vol) with total flow rates above 15 mL/min. The ethanol was then removed and the external buffer replaced with PBS by dialysis. Finally, the lipid nanoparticles were filtered through a 0.2 µm pore sterile filter. Lipid nanoparticle particle size was approximately 55-95 nm diameter, and in some instances approximately 70-90 nm diameter as determined by quasi-elastic light scattering using a Malvern Zetasizer Nano ZS (Malvern, UK).
Studies were performed in 6-8 week old female C57BL/6 mice (Charles River) or 8-10 week old CD-1 (Harlan) mice (Charles River) according to guidelines established by an institutional animal care committee (ACC) and the Canadian Council on Animal Care (CCAC). Varying doses of mRNA-lipid nanoparticle were systemically administered by tail vein injection and animals euthanized at a specific time point (e.g., 4 hours) post-administration. Liver and spleen were collected in pre-weighed tubes, weights determined, immediately snap frozen in liquid nitrogen and stored at -80° C. until processing for analysis.
For liver, approximately 50 mg was dissected for analyses in a 2 mL FastPrep tubes (MP Biomedicals, Solon OH). ¼” ceramic sphere (MP Biomedicals) is added to each tube and 500 µL of Glo Lysis Buffer - GLB (Promega, Madison Wl) equilibrated to room temperature is added to liver tissue. Liver tissues were homogenized with the FastPrep24 instrument (MP Biomedicals) at 2 × 6.0 m/s for 15 seconds. Homogenate was incubated at room temperature for 5 minutes prior to a 1:4 dilution in GLB and assessed using SteadyGlo Luciferase assay system (Promega). Specifically, 50 µL of diluted tissue homogenate was reacted with 50 µL of SteadyGlo substrate, shaken for 10 seconds followed by 5 minute incubation and then quantitated using a CentroXS^3 LB 960 luminometer (Berthold Technologies, Germany). The amount of protein assayed was determined by using the BCA protein assay kit (Pierce, Rockford IL). Relative luminescence units (RLU) were then normalized to total µg protein assayed. To convert RLU to ng luciferase a standard curve was generated with QuantiLum Recombinant Luciferase (Promega).
The FLuc mRNA (L-6107 or L-7202) from Trilink Biotechnologies will express a luciferase protein, originally isolated from the firefly, photinus pyralis. FLuc is commonly used in mammalian cell culture to measure both gene expression and cell viability. It emits bioluminescence in the presence of the substrate, luciferin. This capped and poly-adenylated mRNA was fully substituted with respect to uridine and/or cytidine nucleosides.
The cationic lipids shown in Table 2 have previously been tested with nucleic acids. For comparative purposes, these lipids were also used to formulate lipid nanoparticles containing the FLuc mRNA (L-6107) using an in line mixing method, as described in Example 1 and in PCT/US10/22614, which is hereby incorporated by reference in its entirety. Lipid nanoparticles were formulated using the following molar ratio: 50% Cationic lipid / 10% distearoylphosphatidylcholine (DSPC) / 38.5% Cholesterol / 1.5% PEG lipid (“PEG-DMG”, i.e., 1-(monomethoxy-polyethyleneglycol)-2,3-dimyristoylglycerol, with an average PEG molecular weight of 2000). […]

[2] = tested on: luciferase expression in the liver; assay: as above; set-up: species or system mice; details: 0.5 mg mRNA/kg, liver 4 hours after administration, LNP 50% cationic lipid/10% DSPC/38.5% cholesterol/1.5% PEG-DMA or 47.5/10/40.7/1.8
[3] = Determination of pKa of formulated lipids (TNS fluorescence assay in lipid nanoparticles); type: physicochemical
Method: As described elsewhere, the pKa of formulated cationic lipids is correlated with the effectiveness of LNPs for delivery of nucleic acids (see Jayaraman et al, Angewandte Chemie, International Edition (2012), 51(34), 8529-8533; Semple et al, Nature Biotechnology 28, 172-176 (2010)). […] Lipid nanoparticles comprising cationic lipid/DSPC/cholesterol/PEG-lipid (50/10/38.5/1.5 mol%) in PBS at a concentration of 0.4 mM total lipid were prepared using the in-line process as described in Example 1. TNS was prepared as a 100 µM stock solution in distilled water. Vesicles were diluted to 24 µM lipid in 2 mL of buffered solutions containing, 10 mM HEPES, 10 mM MES, 10 mM ammonium acetate, 130 mM NaCl, where the pH ranged from 2.5 to 11. An aliquot of the TNS solution was added to give a final concentration of 1 µM and following vortex mixing fluorescence intensity was measured at room temperature in a SLM Aminco Series 2 Luminescence Spectrophotometer using excitation and emission wavelengths of 321 nm and 445 nm. A sigmoidal best fit analysis was applied to the fluorescence data and the pKa was measured as the pH giving rise to half-maximal fluorescence intensity.

[4] = Table 3, cationic lipid formulated in LNP, TNS fluorescence assay, read-out: pKa

SMILES	Liver Luc @ 0.3 mg/kg dose [1]	Liver Luc @ 1.0 mg/kg dose [1]	Liver Luc @ 0.5 mg/kg (ng luc/g liver) [2]	also measured
CCCCCC/C=C\COC(=O)CCCCCCCC(CCCCCCCC(=O)OC/C=C\CCCCCC)OC(=O)CCCN(C)C [319 (2% PEG)]	258 ± 67 ng luciferase/g liver	681 ± 203 ng luciferase/g liver		
CCCCC/C=C\C/C=C\CCCCCCCCN(CCCCCCCC/C=C\C/C=C\CCCCC)CCN(C)C [A]	77 ± 40 ng luciferase/g liver	203 ± 122 ng luciferase/g liver		
CCCCC(CC)C(=O)OCCCCCCCCCC(CCCCCCCCCOC(=O)C(CC)CCCC)OC(=O)CCCN(C)C (stereo not shown) [Compound 137]	281 ± 203 ng luciferase/g liver	588 ± 303 ng luciferase/g liver		
CCCCCCCCCCN(C(=O)CCCCN(C)C)C(CCCCCCCCC(=O)OCC(CCCC)CCCCCC)CCCCCCCCC(=O)OCC(CCCC)CCCCCC (stereo not shown) [Compound I-7, BIS(2-BUTYLOCTYL) 10-(N-DECYL-5-(DIMETHYLAMINO)PENTANAMIDO)NONADECANEDIOATE]			2420 ± 1079 ng luc/g liver	
CCCCCCCCCCN(C(=O)CCCCN(CC)CC)C(CCCCCCCCC(=O)OCC(CCCC)CCCCCC)CCCCCCCCC(=O)OCC(CCCC)CCCCCC (stereo not shown) [Compound I-8, BIS(2-BUTYLOCTYL) 10-(N-DECYL-5-(DIETHYLAMINO)PENTANAMIDO)NONADECANEDIOATE]			7384 ± 1916 ng luc/g liver	
CCCCCCCCCCN(C(=O)CCCCN1CCCC1)C(CCCCCCCCC(=O)OCC(CCCC)CCCCCC)CCCCCCCCC(=O)OCC(CCCC)CCCCCC (stereo not shown) [Compound I-9, BIS(2-BUTYLOCTYL) 10-(N-DECYL-5-(PYRROLIDIN-1-YL)PENTANAMIDO)NONADECANEDIOATE]			2223 ± 777 ng luc/g liver	
CCCCCCCCCCN(C(=O)CCCN(C)C)C(CCCCCC(=O)OCC(CCCCCC)CCCCCCCC)CCCCCC(=O)OCC(CCCCCC)CCCCCCCC (stereo not shown) [Compound I-16, BIS(2-HEXYLDECYL) 7-(N-DECYL-4-(DIMETHYLAMINO)BUTANAMIDO)TRIDECANEDIOATE]			4678 ± 1243 ng luc/g liver	
CCCCCCCCCCN(C(=O)CCCN(C)C)C(CCCCCCCCC(=O)OCC(CCCC)CCCCCC)CCCCCCCCC(=O)OCC(CCCC)CCCCCC (stereo not shown) [Compound I-18, BIS(2-BUTYLOCTYL) 10-(N-DECYL-4-(DIMETHYLAMINO)BUTANAMIDO)NONADECANEDIOATE]			13301 ± 8071 ng luc/g liver	
CCCCCCCCCCN(C(=O)CCCN1CCCC1)C(CCCCCC(=O)OCC(CCCCCC)CCCCCCCC)CCCCCC(=O)OCC(CCCCCC)CCCCCCCC (stereo not shown) [Compound I-29, BIS(2-HEXYLDECYL) 7-(N-DECYL-4-(PYRROLIDIN-1-YL)BUTANAMIDO)TRIDECANEDIOATE]			5551 ± 1650 ng luc/g liver	
CCCCCCC(CCCC)COC(=O)CCCCCCCCC(CCCCCCCCC(=O)OCC(CCCC)CCCCCC)N(CC(CC)CCCC)C(=O)CCCN(C)C (stereo not shown) [Compound I-30, BIS(2-BUTYLOCTYL) 10-(4-(DIMETHYLAMINO)-N-(2-ETHYLHEXYL)BUTANAMIDO)NONADECANEDIOATE]			13614 ± 3348 ng luc/g liver	pKa ([3]; Table 1, cationic lipid formulated in LNP (cationic lipid/DSPC/cholesterol/PEG-lipid 50/10/38.5/1.5 mol%), TNS fluorescence, pH giving half-maximal fluorescence): 6.47; pKa ([3]; Table 3, cationic lipid formulated in LNP, TNS fluorescence assay): 6.47
CCCCCCCCCCN(C(=O)CCCN(C)C)C(CCCCCCCCCOC(=O)C(CCCC)CCCCCC)CCCCCCCCCOC(=O)C(CCCC)CCCCCC (stereo not shown) [Compound I-32, 10-(4-(DIMETHYLAMINO)-N-DECYLBUTANAMIDO)NONADECANE-1,19-DIYL BIS(2-BUTYLOCTANOATE)]			4091 ± 713 ng luc/g liver	pKa ([3]; Table 1, cationic lipid formulated in LNP (cationic lipid/DSPC/cholesterol/PEG-lipid 50/10/38.5/1.5 mol%), TNS fluorescence, pH giving half-maximal fluorescence, read-out: pKa): 6.41
CCCCCCCCCCN(C(=O)CCN1CCCC1)C(CCCCCCCCC(=O)OCC(CCCC)CCCCCC)CCCCCCCCC(=O)OCC(CCCC)CCCCCC (stereo not shown) [Compound I-33, BIS(2-BUTYLOCTYL) 10-(N-DECYL-3-(PYRROLIDIN-1-YL)PROPANAMIDO)NONADECANEDIOATE]			1304 ± 278 ng luc/g liver	
CCCCCCCCCCN(C(=O)CCN(C)C)C(CCCCCC(=O)OCC(CCCCCC)CCCCCCCC)CCCCCC(=O)OCC(CCCCCC)CCCCCCCC (stereo not shown) [Compound I-35, BIS(2-HEXYLDECYL) 7-(N-DECYL-3-(DIMETHYLAMINO)PROPANAMIDO)TRIDECANEDIOATE]			14312 ± 4174 ng luc/g liver	pKa [3, 4]: 6.39
CCCCCCCCC(CCCCCC)COC(=O)CCCCCC(CCCCCC(=O)OCC(CCCCCC)CCCCCCCC)N(CCCCCC(=O)OCC(CC)CCCC)C(=O)CCN(C)C (stereo not shown) [Compound I-36, BIS(2-HEXYLDECYL) 7-(3-(DIMETHYLAMINO)-N-(6-((2-ETHYLHEXYL)OXY)-6-OXOHEXYL)PROPANAMIDO)TRIDECANEDIOATE]			10377 ± 1435 ng luc/g liver	pKa [3, 4]: 6.55
CCCCCCCCCCN(C(=O)CCCN(C)C)C(CCCCCCCCC(=O)OC(CCCCCC)CCCCCC)CCCCCCCCC(=O)OC(CCCCCC)CCCCCC [Compound I-37, DI(TRIDECAN-7-YL) 10-(N-DECYL-4-(DIMETHYLAMINO)BUTANAMIDO)NONADECANEDIOATE]			15234 ± 5248 ng luc/g liver	pKa [3, 4]: 6.3
CCCCC/C=C\C/C=C\CCCCCCCCOCC(CN(C)C)OCCCCCCCC/C=C\C/C=C\CCCCC (stereo not shown) [DLinDMA]	13 ± 3 ng luciferase/g liver	67 ± 20 ng luciferase/g liver		
CCCCC/C=C\C/C=C\CCCCCCCCC(CCCCCCCC/C=C\C/C=C\CCCCC)OC(=O)CCN(C)C [MC2]	4 ± 1 ng luciferase/g liver			
CCCCC/C=C\C/C=C\CCCCCCCCC(CCCCCCCC/C=C\C/C=C\CCCCC)OC(=O)CCCN(C)C [MC3]		757 ± 528 ng luciferase/g liver		
CCCCC/C=C\C/C=C\CCCCCCCCC(CCCCCCCC/C=C\C/C=C\CCCCC)OC(=O)CCCCN(C)C [MC4]	41 ± 10 ng luciferase/g liver			
CCCCC/C=C\C/C=C\CCCCCCCCC1(CCCCCCCC/C=C\C/C=C\CCCCC)OC[C@@H](CCN(C)C)O1 [XTC2]	80 ± 28 ng luciferase/g liver	237 ± 99 ng luciferase/g liver		
